From patent US9670194B2 (Calitor Sciences, LLC, priority 2013, dated 2017)

How the values were obtained:
[1] = Compound stability in rat liver microsomes; type: in vitro ADME; details: pH 7.4; for half-life at 5 μM: rat liver microsomes 0.5 mg protein/mL, compound 5 μM, NADPH 1.0 mM, 37° C.; for CLint scaled at 5 μM: rat liver microsomes, in vivo CLint extrapolated
[2] = Compound stability in human liver microsomes; type: in vitro ADME; details: for half-life at 5 μM: human liver microsomes 0.5 mg protein/mL, compound 5 μM, NADPH 1.0 mM, 37° C.; for CLint scaled at 5 μM: human liver microsomes, in vivo CLint extrapolated
PI3K (p110δ/p85α) (h) = PI3K (p110δ/p85α) (h) (Homo sapiens (Human), UniProt O00329); assay: PI3K (p110δ/p85α) (h) non-radioactive HTRF kinase assay; type: biochemical
PI3K (p110δ/p85α) (h), sequence (O00329 whole entry): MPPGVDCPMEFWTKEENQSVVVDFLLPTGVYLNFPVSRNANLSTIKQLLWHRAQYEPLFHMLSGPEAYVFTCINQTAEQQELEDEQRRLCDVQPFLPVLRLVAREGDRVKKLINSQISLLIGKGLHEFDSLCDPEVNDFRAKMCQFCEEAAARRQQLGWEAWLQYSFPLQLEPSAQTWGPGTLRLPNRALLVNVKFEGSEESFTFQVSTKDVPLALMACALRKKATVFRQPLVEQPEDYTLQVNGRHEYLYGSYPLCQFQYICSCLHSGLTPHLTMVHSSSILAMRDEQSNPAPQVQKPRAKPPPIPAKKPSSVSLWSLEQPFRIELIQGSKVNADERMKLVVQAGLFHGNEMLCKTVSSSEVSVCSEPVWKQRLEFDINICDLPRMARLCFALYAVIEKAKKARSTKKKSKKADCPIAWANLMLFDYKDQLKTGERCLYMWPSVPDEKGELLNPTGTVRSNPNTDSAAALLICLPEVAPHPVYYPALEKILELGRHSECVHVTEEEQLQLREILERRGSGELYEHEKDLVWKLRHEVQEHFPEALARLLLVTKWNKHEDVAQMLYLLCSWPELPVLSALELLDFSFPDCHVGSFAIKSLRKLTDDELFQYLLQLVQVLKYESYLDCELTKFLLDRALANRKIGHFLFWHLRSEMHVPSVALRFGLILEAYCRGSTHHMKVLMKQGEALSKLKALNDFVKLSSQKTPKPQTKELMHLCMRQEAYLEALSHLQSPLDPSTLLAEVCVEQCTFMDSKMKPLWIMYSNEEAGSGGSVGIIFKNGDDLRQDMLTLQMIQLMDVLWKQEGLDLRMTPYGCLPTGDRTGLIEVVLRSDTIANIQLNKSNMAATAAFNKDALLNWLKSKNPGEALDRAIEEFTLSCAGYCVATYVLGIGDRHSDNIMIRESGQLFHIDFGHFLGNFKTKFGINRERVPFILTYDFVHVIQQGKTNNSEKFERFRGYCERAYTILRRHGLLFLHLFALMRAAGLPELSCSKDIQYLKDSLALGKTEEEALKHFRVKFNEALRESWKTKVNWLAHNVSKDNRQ
PI3K (p110δ/p85α) (h), sequence (P27986 whole entry partner): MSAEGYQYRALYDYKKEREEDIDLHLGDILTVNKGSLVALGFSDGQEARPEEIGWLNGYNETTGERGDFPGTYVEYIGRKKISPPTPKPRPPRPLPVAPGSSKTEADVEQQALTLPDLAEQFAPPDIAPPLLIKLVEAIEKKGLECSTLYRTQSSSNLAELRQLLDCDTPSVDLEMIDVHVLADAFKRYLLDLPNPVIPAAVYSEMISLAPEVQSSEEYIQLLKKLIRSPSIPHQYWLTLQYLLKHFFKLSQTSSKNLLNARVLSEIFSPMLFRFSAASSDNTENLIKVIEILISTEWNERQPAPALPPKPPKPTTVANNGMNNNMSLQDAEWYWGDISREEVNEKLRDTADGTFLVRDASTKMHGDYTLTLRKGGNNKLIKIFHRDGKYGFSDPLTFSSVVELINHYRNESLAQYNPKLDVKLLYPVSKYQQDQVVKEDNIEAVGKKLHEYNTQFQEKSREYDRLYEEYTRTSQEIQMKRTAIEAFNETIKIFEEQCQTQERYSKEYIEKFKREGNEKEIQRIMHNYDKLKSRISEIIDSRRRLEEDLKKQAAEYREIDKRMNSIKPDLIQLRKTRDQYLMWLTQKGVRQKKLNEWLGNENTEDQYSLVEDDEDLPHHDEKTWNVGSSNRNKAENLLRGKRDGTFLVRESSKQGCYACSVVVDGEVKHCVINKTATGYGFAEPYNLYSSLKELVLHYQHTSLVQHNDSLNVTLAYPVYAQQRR

[3] = Pharmacokinetics after intravenous and oral administration in rats; type: in vivo, rat; details: for clearance (CL) / AUC(0-t) / half-life / Vd: iv dosing, dose 1 mg/kg; for bioavailability / AUC(0-t) / half-life / Vd: rat, plasma; for bioavailability: iv dose 1 mg/kg, oral dose generally 5 or 10 mg/kg; for Vd: read-out: Vss

SMILES: CC[C@H](Nc1ncnc(N)c1-c1nc(C)no1)c1nc2cccc(F)c2c(=O)n1C1CC1 [Ex. 23, (S)-2-(1-((6-amino-5-(3-methyl-1,2,4-oxadiazol-5-yl)pyrimidin-4-yl)amino)-propyl)-3-cyclopropyl-5-fluoroquinazolin-4(3H)-one]
- half-life at 5 μM [1]: 56.9 min
- CLint scaled at 5 μM [1]: 43.7 mL/min/kg
- half-life at 5 μM [2]: 44.3 min
- CLint scaled at 5 μM [2]: 56 mL/min/kg
- IC50 (PI3K (p110δ/p85α) (h)): 52 nM
- clearance (CL) [3]: 71.3 mL/min/kg
- bioavailability [3]: 34.1%
- AUC(0-t) [3]: 237 ng·h/mL
- half-life [3]: 56.4 min
- Vd [3]: 5.02 L/kg

SMILES: CC[C@H](Nc1ncnc(N)c1-c1nnc(C)o1)c1nc2cccc(F)c2c(=O)n1C1CC1 [Ex. 25, (S)-2-(1-((6-amino-5-(5-methyl-1,3,4-oxadiazol-2-yl)pyrimidin-4-yl)amino)-propyl)-3-cyclopropyl-5-fluoroquinazolin-4(3H)-one]
- half-life at 5 μM [1]: 49.9 min
- CLint scaled at 5 μM [1]: 49.8 mL/min/kg
- half-life at 5 μM [2]: 150 min
- CLint scaled at 5 μM [2]: 16.6 mL/min/kg
- IC50 (PI3K (p110δ/p85α) (h)): 298 nM
- clearance (CL) [3]: 75.7 mL/min/kg
- bioavailability [3]: 62.3%
- AUC(0-t) [3]: 223 ng·h/mL
- half-life [3]: 48.6 min
- Vd [3]: 3.77 L/kg

SMILES: CC[C@H](Nc1ncnc(N)c1-c1ncn(C)n1)c1nc2cccc(F)c2c(=O)n1C1CC1 [Ex. 26, (S)-2-(1-((6-amino-5-(1-methyl-1H-1,2,4-triazol-3-yl)pyrimidin-4-yl)amino)propyl)-3-cyclopropyl-5-fluoroquinazolin-4(3H)-one]
- half-life at 5 μM [1]: 66.3 min
- CLint scaled at 5 μM [1]: 37.4 mL/min/kg
- half-life at 5 μM [2]: 74.5 min
- CLint scaled at 5 μM [2]: 33.4 mL/min/kg
- IC50 (PI3K (p110δ/p85α) (h)): 2290 nM
- clearance (CL) [3]: 37 mL/min/kg
- bioavailability [3]: 45.8%
- AUC(0-t) [3]: 443 ng·h/mL
- half-life [3]: 128 min
- Vd [3]: 2.5 L/kg

SMILES: CC[C@H](Nc1ncnc(N)c1-c1nc(C)no1)c1nc2cccc(C)c2c(=O)n1-c1ccccc1C [Ex. 27, (S)-2-(1-((6-amino-5-(3-methyl-1,2,4-oxadiazol-5-yl)pyrimidin-4-yl)amino)-propyl)-5-methyl-3-(o-tolyl)quinazolin-4(3H)-one]
- half-life at 5 μM [1]: 16.3 min
- CLint scaled at 5 μM [1]: 152 mL/min/kg
- half-life at 5 μM [2]: 14.9 min
- CLint scaled at 5 μM [2]: 167 mL/min/kg
- IC50 (PI3K (p110δ/p85α) (h)): 13 nM
- clearance (CL) [3]: 61.7 mL/min/kg
- bioavailability [3]: 49.8%
- AUC(0-t) [3]: 263 ng·h/mL
- half-life [3]: 111 min
- Vd [3]: 6.11 L/kg

SMILES: CC[C@H](Nc1ncnc(N)c1-c1nnc(C)o1)c1nc2cccc(C)c2c(=O)n1-c1ccccc1C [Ex. 31, (S)-2-(1-((6-amino-5-(5-methyl-1,3,4-oxadiazol-2-yl)pyrimidin-4-yl)amino)propyl)-5-methyl-3-(o-tolyl)quinazolin-4(3H)-one]
- half-life at 5 μM [1]: 7.27 min
- CLint scaled at 5 μM [1]: 342 mL/min/kg
- half-life at 5 μM [2]: 7.56 min
- CLint scaled at 5 μM [2]: 328 mL/min/kg
- IC50 (PI3K (p110δ/p85α) (h)): 18 nM
- clearance (CL) [3]: 64.8 mL/min/kg
- bioavailability [3]: 16.2%
- AUC(0-t) [3]: 260 ng·h/mL
- half-life [3]: 42 min
- Vd [3]: 3.42 L/kg

SMILES: CC[C@H](Nc1ncnc(N)c1-c1ncn(C)n1)c1nc2cccc(Cl)c2c(=O)n1-c1ccccc1 [Ex. 32, (S)-2-(1-((6-amino-5-(1-methyl-1H-1,2,4-triazol-3-yl)pyrimidin-4-yl)amino)-propyl)-5-chloro-3-phenylquinazolin-4(3H)-one]
- half-life at 5 μM [1]: 20 min
- CLint scaled at 5 μM [1]: 124 mL/min/kg
- half-life at 5 μM [2]: 17.4 min
- CLint scaled at 5 μM [2]: 100 mL/min/kg
- IC50 (PI3K (p110δ/p85α) (h)): 70 nM
- clearance (CL) [3]: 43.3 mL/min/kg
- bioavailability [3]: 61%
- AUC(0-t) [3]: 390 ng·h/mL
- half-life [3]: 37.8 min
- Vd [3]: 1.51 L/kg

SMILES: Cc1nc(-c2c(N)ncnc2N[C@@H](C)c2nc3cccc(Cl)c3c(=O)n2C2CC2)no1 [Ex. 33, (S)-2-(1-((6-amino-5-(5-methyl-1,2,4-oxadiazol-3-yl)pyrimidin-4-yl)amino)-ethyl)-5-chloro-3-cyclopropylquinazolin-4(3H)-one]
- half-life at 5 μM [1]: 8.68 min
- CLint scaled at 5 μM [1]: 286 mL/min/kg
- half-life at 5 μM [2]: 11.9 min
- CLint scaled at 5 μM [2]: 146 mL/min/kg
- IC50 (PI3K (p110δ/p85α) (h)): 67 nM
- clearance (CL) [3]: 65.5 mL/min/kg
- bioavailability [3]: 5.59%
- AUC(0-t) [3]: 241 ng·h/mL
- half-life [3]: 432 min
- Vd [3]: 14.3 L/kg

SMILES: CC[C@H](Nc1ncnc(N)c1-c1nc(C)no1)c1nc2cccc(C)c2c(=O)n1-c1ccccc1 [Ex. 37, (S)-2-(1-((6-amino-5-(3-methyl-1,2,4-oxadiazol-5-yl)pyrimidin-4-yl)amino)-propyl)-5-methyl-3-phenylquinazolin-4(3H)-one]
- half-life at 5 μM [1]: 7.2 min
- CLint scaled at 5 μM [1]: 345 mL/min/kg
- half-life at 5 μM [2]: 5.3 min
- CLint scaled at 5 μM [2]: 328 mL/min/kg
- IC50 (PI3K (p110δ/p85α) (h)): 6 nM
- clearance (CL) [3]: 67.5 mL/min/kg
- bioavailability [3]: 24.6%
- AUC(0-t) [3]: 246 ng·h/mL
- half-life [3]: 80.4 min
- Vd [3]: 4.9 L/kg

SMILES: CC[C@H](Nc1ncnc(N)c1-c1nnc(C)o1)c1nc2cccc(C)c2c(=O)n1-c1ccccc1 [Ex. 38, (S)-2-(1-((6-amino-5-(5-methyl-1,3,4-oxadiazol-2-yl)pyrimidin-4-yl)amino)-propyl)-5-methyl-3-phenylquinazolin-4(3H)-one]
- half-life at 5 μM [1]: 8.57 min
- CLint scaled at 5 μM [1]: 290 mL/min/kg
- half-life at 5 μM [2]: 16 min
- CLint scaled at 5 μM [2]: 109 mL/min/kg
- IC50 (PI3K (p110δ/p85α) (h)): 12 nM
- clearance (CL) [3]: 71.3 mL/min/kg
- bioavailability [3]: 36.6%
- AUC(0-t) [3]: 236 ng·h/mL
- half-life [3]: 39.3 min
- Vd [3]: 3.05 L/kg

SMILES: CC[C@H](Nc1ncnc(N)c1-c1nnc(C)o1)c1nc2cccc(F)c2c(=O)n1-c1ccccc1 [Ex. 40, (S)-2-(1-((6-amino-5-(5-methyl-1,3,4-oxadiazol-2-yl)pyrimidin-4-yl)amino)-propyl)-5-fluoro-3-phenylquinazolin-4(3H)-one]
- half-life at 5 μM [1]: 12.6 min
- CLint scaled at 5 μM [1]: 198 mL/min/kg
- half-life at 5 μM [2]: 28 min
- CLint scaled at 5 μM [2]: 62.1 mL/min/kg
- IC50 (PI3K (p110δ/p85α) (h)): 93 nM
- clearance (CL) [3]: 57.3 mL/min/kg
- bioavailability [3]: 112%
- AUC(0-t) [3]: 292 ng·h/mL
- half-life [3]: 40.2 min
- Vd [3]: 2.99 L/kg

SMILES: C[C@H](Nc1ncnc(N)c1-c1ncn(C)n1)c1nc2cccc(Cl)c2c(=O)n1C1CC1 [Ex. 44, (S)-2-(1-((6-amino-5-(1-methyl-1H-1,2,4-triazol-3-yl)pyrimidin-4-yl)amino)-ethyl)-5-chloro-3-cyclopropylquinazolin-4(3H)-one]
- half-life at 5 μM [1]: 13 min
- CLint scaled at 5 μM [1]: 191 mL/min/kg
- half-life at 5 μM [2]: 13.6 min
- CLint scaled at 5 μM [2]: 128 mL/min/kg
- IC50 (PI3K (p110δ/p85α) (h)): 358 nM
- clearance (CL) [3]: 73.7 mL/min/kg
- bioavailability [3]: 14%
- AUC(0-t) [3]: 231 ng·h/mL
- half-life [3]: 34.2 min
- Vd [3]: 2.51 L/kg

SMILES: CC[C@H](Nc1ncnc(N)c1-c1ccn(C)n1)c1nc2cccc(Cl)c2c(=O)n1C1CC1 [Ex. 51, (S)-2-(1-((6-amino-5-(1-methyl-1H-pyrazol-3-yl)pyrimidin-4-yl)amino)propyl)-5-chloro-3-cyclopropylquinazolin-4(3H)-one]
- half-life at 5 μM [1]: 18.2 min
- CLint scaled at 5 μM [1]: 136 mL/min/kg
- half-life at 5 μM [2]: 22.6 min
- CLint scaled at 5 μM [2]: 76.9 mL/min/kg
- IC50 (PI3K (p110δ/p85α) (h)): 135 nM
- clearance (CL) [3]: 27.3 mL/min/kg
- bioavailability [3]: 59.8%
- AUC(0-t) [3]: 609 ng·h/mL
- half-life [3]: 115 min
- Vd [3]: 1.64 L/kg

SMILES: CC[C@H](Nc1ncnc(N)c1-c1ncn(C)n1)c1nc2cccc(Cl)c2c(=O)n1C1CC1 [Ex. 53, (S)-2-(1-((6-amino-5-(1-methyl-1H-1,2,4-triazol-3-yl)pyrimidin-4-yl)amino)-propyl)-5-chloro-3-cyclopropylquinazolin-4(3H)-one]
- half-life at 5 μM [1]: 34.1 min
- CLint scaled at 5 μM [1]: 72.9 mL/min/kg
- half-life at 5 μM [2]: 28 min
- CLint scaled at 5 μM [2]: 62.1 mL/min/kg
- IC50 (PI3K (p110δ/p85α) (h)): 239 nM
- clearance (CL) [3]: 38.2 mL/min/kg
- bioavailability [3]: 97.3%
- AUC(0-t) [3]: 429 ng·h/mL
- half-life [3]: 97.2 min
- Vd [3]: 3.88 L/kg

SMILES: CCc1noc(-c2c(N)ncnc2N[C@@H](CC)c2nc3cccc(Cl)c3c(=O)n2C2CC2)n1 [Ex. 56, (S)-2-(1-((6-amino-5-(3-ethyl-1,2,4-oxadiazol-5-yl)pyrimidin-4-yl)amino)-propyl)-5-chloro-3-cyclopropylquinazolin-4(3H)-one]
- half-life at 5 μM [1]: 20.4 min
- CLint scaled at 5 μM [1]: 122 mL/min/kg
- half-life at 5 μM [2]: 20 min
- CLint scaled at 5 μM [2]: 87 mL/min/kg
- IC50 (PI3K (p110δ/p85α) (h)): 9 nM
- clearance (CL) [3]: 74.7 mL/min/kg
- bioavailability [3]: 60.9%
- AUC(0-t) [3]: 217 ng·h/mL
- half-life [3]: 104 min
- Vd [3]: 8.12 L/kg

SMILES: CC(C)c1noc(-c2c(N)ncnc2N[C@@H](C)c2nc3cccc(Cl)c3c(=O)n2C2CC2)n1 [Ex. 57, (S)-2-(1-((6-amino-5-(3-isopropyl-1,2,4-oxadiazol-5-yl)pyrimidin-4-yl)amino)-ethyl)-5-chloro-3-cyclopropylquinazolin-4(3H)-one]
- half-life at 5 μM [1]: 10.4 min
- CLint scaled at 5 μM [1]: 239 mL/min/kg
- half-life at 5 μM [2]: 18.2 min
- CLint scaled at 5 μM [2]: 95.2 mL/min/kg
- IC50 (PI3K (p110δ/p85α) (h)): 6 nM
- clearance (CL) [3]: 83 mL/min/kg
- bioavailability [3]: 12.1%
- AUC(0-t) [3]: 199 ng·h/mL
- half-life [3]: 59.4 min
- Vd [3]: 5.84 L/kg

SMILES: CC(C)c1nc(-c2c(N)ncnc2N[C@@H](C)c2nc3cccc(Cl)c3c(=O)n2C2CC2)no1 [Ex. 59, (S)-2-(1-((6-amino-5-(5-isopropyl-1,2,4-oxadiazol-3-yl)pyrimidin-4-yl)amino)ethyl)-5-chloro-3-cyclopropylquinazolin-4(3H)-one]
- half-life at 5 μM [1]: 3.36 min
- CLint scaled at 5 μM [1]: 739 mL/min/kg
- half-life at 5 μM [2]: 6.66 min
- CLint scaled at 5 μM [2]: 261 mL/min/kg
- IC50 (PI3K (p110δ/p85α) (h)): 20 nM
- clearance (CL) [3]: 73.7 mL/min/kg
- bioavailability [3]: 3.27%
- AUC(0-t) [3]: 229 ng·h/mL
- half-life [3]: 115 min
- Vd [3]: 7.32 L/kg
